Data reported in patent publication US20230278972A1, “SUBSTITUTED HALOALKYL SULFONANILIDE HERBICIDES” (FMC Corporation, priority 2020, published 2023).

How the values were obtained:
Assay type in all cases: in vivo
[1] = system: galium (catchweed bedstraw, Galium aparine); assay: Test A postemergence, galium; details: Postemergence, 0 to 100 scale (0 no effect, 100 complete control); for Plant response rating, Galium: 125 g ai/ha; for Galium plant response rating: 500 g ai/ha, visual injury vs untreated controls after approx. 10 days
Method in brief: (§1)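 Pots: loam soil/sand blend. Pre: directed soil spray at planting. Post: plants 2–10 cm, 1–2 leaf stage. Formulation: non-phytotoxic solvent + surfactant.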

[2] = system: Ryegrass, Italian (Italian ryegrass, Lolium multiflorum); assay: Test A preemergence, Ryegrass, Italian; details: Preemergence; for Ryegrass, Italian plant response rating: visual injury on 0 to 100 scale (0 no effect, 100 complete control), approximately 10 days; for Plant response rating, Ryegrass, Italian: 0 to 100 scale (0 no effect, 100 complete control)
Method in brief: (§2)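 Compounds in non-phytotoxic solvent with surfactant. Soil: loam/sand. Preemergence via directed soil spray after seeding; postemergence on seedlings 2–10 cm, one- to two-leaf.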

[3] = system: ragweed (common ragweed, Ambrosia artemisiifolia); assay: Test A postemergence, ragweed; details: Postemergence, 0 to 100 scale (0 no effect, 100 complete control); for Plant response rating, Ragweed: 125 g ai/ha; for Ragweed plant response rating: 500 g ai/ha, visual injury vs untreated controls after approx. 10 days
Method in brief: as §2

[4] = system: Foxtail, Giant (giant foxtail, Setaria faberi); assay: Test A postemergence, Foxtail, Giant; details: Postemergence, 0 to 100 scale (0 no effect, 100 complete control); for Plant response rating, Foxtail, Giant: 125 g ai/ha; for Foxtail, Giant plant response rating: 500 g ai/ha, visual injury vs untreated controls after approx. 10 days
Method in brief: as §2

[5] = system: barnyardgrass (Echinochloa crus-galli); assay: Test A preemergence, barnyardgrass; details: Preemergence; for Barnyardgrass plant response rating: visual injury on 0 to 100 scale (0 no effect, 100 complete control), approximately 10 days; for Plant response rating, Barnyardgrass: 0 to 100 scale (0 no effect, 100 complete control)
Method in brief: as §2

[6] = system: barnyardgrass (Echinochloa crus-galli); assay: Test A postemergence, barnyardgrass; details: Postemergence, 0 to 100 scale (0 no effect, 100 complete control); for Plant response rating, Barnyardgrass: 125 g ai/ha; for Barnyardgrass plant response rating: 500 g ai/ha, visual injury vs untreated controls after approx. 10 days
Method in brief: as §1

[7] = system: pigweed (Amaranthus retroflexus); assay: Test A postemergence, pigweed; details: Postemergence, 0 to 100 scale (0 no effect, 100 complete control); for Plant response rating, Pigweed: 125 g ai/ha; for Pigweed plant response rating: 500 g ai/ha, visual injury vs untreated controls after approx. 10 days
Method in brief: as §2

kochia (Bassia scoparia) [8] = assay: Test A preemergence, kochia; details: Preemergence; for Kochia plant response rating: visual injury on 0 to 100 scale (0 no effect, 100 complete control), approximately 10 days; for Plant response rating, Kochia: 0 to 100 scale (0 no effect, 100 complete control)
Method in brief: as §2

[9] = system: blackgrass (Alopecurus myosuroides); assay: Test A postemergence, blackgrass; details: Postemergence, 0 to 100 scale (0 no effect, 100 complete control); for Plant response rating, Blackgrass: 125 g ai/ha; for Blackgrass plant response rating: 500 g ai/ha, visual injury vs untreated controls after approx. 10 days
Method in brief: as §2

[10] = system: ragweed (common ragweed, Ambrosia artemisiifolia); assay: Test A preemergence, ragweed; details: Preemergence; for Ragweed plant response rating: visual injury on 0 to 100 scale (0 no effect, 100 complete control), approximately 10 days; for Plant response rating, Ragweed: 0 to 100 scale (0 no effect, 100 complete control)
Method in brief: as §2

[11] = system: Foxtail, Giant (giant foxtail, Setaria faberi); assay: Test A preemergence, Foxtail, Giant; details: Preemergence; for Foxtail, Giant plant response rating: visual injury on 0 to 100 scale (0 no effect, 100 complete control), approximately 10 days; for Plant response rating, Foxtail, Giant: 0 to 100 scale (0 no effect, 100 complete control)
Method in brief: as §2

kochia (Bassia scoparia) [12] = assay: Test A postemergence, kochia; details: Postemergence, 0 to 100 scale (0 no effect, 100 complete control); for Plant response rating, Kochia: 125 g ai/ha; for Kochia plant response rating: 500 g ai/ha, visual injury vs untreated controls after approx. 10 days
Method in brief: as §2

[13] = system: wheat (Triticum aestivum); assay: Test A postemergence, wheat; details: Postemergence, 0 to 100 scale (0 no effect, 100 complete control); for Plant response rating, Wheat: 125 g ai/ha; for Wheat plant response rating: 500 g ai/ha, visual injury vs untreated controls after approx. 10 days
Method in brief: as §1

[14] = system: Ryegrass, Italian (Italian ryegrass, Lolium multiflorum); assay: Test A postemergence, Ryegrass, Italian; details: Postemergence, 0 to 100 scale (0 no effect, 100 complete control); for Plant response rating, Ryegrass, Italian: 125 g ai/ha; for Ryegrass, Italian plant response rating: 500 g ai/ha, visual injury vs untreated controls after approx. 10 days
Method in brief: as §2

[15] = system: pigweed (Amaranthus retroflexus); assay: Test A preemergence, pigweed; details: for Pigweed plant response rating: visual injury on 0 to 100 scale (0 no effect, 100 complete control), approximately 10 days; for Plant response rating, Pigweed: 0 to 100 scale (0 no effect, 100 complete control)
Method in brief: as §1

corn (Zea mays) = assay: Test A postemergence, corn; details: Postemergence, 0 to 100 scale (0 no effect, 100 complete control); for Plant response rating, Corn: 125 g ai/ha; for Corn plant response rating: 500 g ai/ha, visual injury vs untreated controls after approx. 10 days
Method in brief: as §2

[16] = 125 g ai/ha, visual injury, approx. 10 days

Structure (SMILES) | Plant response rating, Galium ([1]; visual injury approx. 10 days) | Galium plant response rating [1] | Ryegrass, Italian plant response rating ([2]; 125 g ai/ha) | Plant response rating, Ryegrass, Italian ([2]; 500 g ai/ha) | Plant response rating, Ragweed ([3]; visual injury approx. 10 days) | Ragweed plant response rating [3] | Plant response rating, Foxtail, Giant ([4]; visual injury approx. 10 days) | Foxtail, Giant plant response rating [4] | Plant response rating, Barnyardgrass ([5]; 500 g ai/ha) | Barnyardgrass plant response rating [6] | Pigweed plant response rating [7] | Plant response rating, Kochia (kochia (Bassia scoparia) [8]; 500 g ai/ha) | Blackgrass plant response rating [9] | Plant response rating, Ragweed ([10]; 500 g ai/ha) | Plant response rating, Foxtail, Giant ([11]; 500 g ai/ha) | Kochia plant response rating (kochia (Bassia scoparia) [12]) | Wheat plant response rating [13] | Ryegrass, Italian plant response rating [14] | Plant response rating, Pigweed ([15]; 500 g ai/ha) | Corn plant response rating (corn (Zea mays)) | further results
COc1cnn(-c2cc(NS(=O)(=O)C(F)(F)F)c(C)cc2C)c(=O)c1 [Compound 54] | 60 | 90 | 0 | 20 | 80 | 90 | 0 | 0 | 0 | 10 | 70 | 90 | 0 | 90 | 10 | 80 | 0 | 40 | 90 | 10 | Barnyardgrass plant response rating ([5]; 125 g ai/ha): 0; Plant response rating, Barnyardgrass ([6]; visual injury approx. 10 days): 0; Plant response rating, Pigweed ([7]; visual injury approx. 10 days): 40; Kochia plant response rating (kochia (Bassia scoparia) [8]; 125 g ai/ha): 60; Plant response rating, Blackgrass ([9]; visual injury approx. 10 days): 0; Ragweed plant response rating ([10]; 125 g ai/ha): 50; Foxtail, Giant plant response rating ([11]; 125 g ai/ha): 0; Plant response rating, Kochia (kochia (Bassia scoparia) [12]; visual injury approx. 10 days): 60; Plant response rating, Wheat ([13]; visual injury approx. 10 days): 0; Plant response rating, Ryegrass, Italian ([14]; visual injury approx. 10 days): 40; Pigweed plant response rating ([15]; 125 g ai/ha): 40; Plant response rating, Corn (corn (Zea mays); visual injury approx. 10 days): 0
Cc1cc(F)c(-c2ccnn(C)c2=O)cc1NS(=O)(=O)C(F)(F)F [Compound 63] | 90 | 90 | 90 | 100 | 10 | 60 | 70 | 90 | 90 | 90 | 80 | 90 | 40 | 80 | 100 | 90 | 80 | 70 | 90 | 50 | Barnyardgrass plant response rating ([5]; 125 g ai/ha): 70; Plant response rating, Barnyardgrass ([6]; visual injury approx. 10 days): 10; Plant response rating, Pigweed ([7]; visual injury approx. 10 days): 30; Kochia plant response rating (kochia (Bassia scoparia) [8]; 125 g ai/ha): 40; Plant response rating, Blackgrass ([9]; visual injury approx. 10 days): 0; Ragweed plant response rating ([10]; 125 g ai/ha): 30; Foxtail, Giant plant response rating ([11]; 125 g ai/ha): 90; Plant response rating, Kochia (kochia (Bassia scoparia) [12]; visual injury approx. 10 days): 70; Plant response rating, Wheat ([13]; visual injury approx. 10 days): 0; Plant response rating, Ryegrass, Italian ([14]; visual injury approx. 10 days): 30; Pigweed plant response rating ([15]; 125 g ai/ha): 70; Plant response rating, Corn (corn (Zea mays); visual injury approx. 10 days): 0
COc1c(Cl)nn(C)c(=O)c1-c1cc(NS(=O)(=O)C(F)(F)F)c(C)cc1C [Compound 64] | 0 | 30 | 70 | 100 | 0 | 0 | 0 | 60 | 90 | 20 | 30 | 90 | 30 | 40 | 90 | 60 | 60 | 80 | 50 | 0 | Barnyardgrass plant response rating ([5]; 125 g ai/ha): 50; Plant response rating, Barnyardgrass ([6]; visual injury approx. 10 days): 20; Plant response rating, Pigweed ([7]; visual injury approx. 10 days): 20; Kochia plant response rating (kochia (Bassia scoparia) [8]; 125 g ai/ha): 40; Plant response rating, Blackgrass ([9]; visual injury approx. 10 days): 0; Ragweed plant response rating ([10]; 125 g ai/ha): 0; Foxtail, Giant plant response rating ([11]; 125 g ai/ha): 90; Plant response rating, Kochia (kochia (Bassia scoparia) [12]; visual injury approx. 10 days): 20; Plant response rating, Wheat ([13]; visual injury approx. 10 days): 40; Plant response rating, Ryegrass, Italian ([14]; visual injury approx. 10 days): 40; Pigweed plant response rating ([15]; 125 g ai/ha): 40; Plant response rating, Corn (corn (Zea mays); visual injury approx. 10 days): 0
Cc1cc(C)c(C(=O)N2CCC3(CCCC3)C2)cc1NS(=O)(=O)C(F)(F)F [Compound 225] | – | 80 | – | 100 | – | 40 | – | 0 | 90 | 10 | 30 | 40 | 20 | 90 | 100 | 10 | 0 | 40 | 100 | 0 | Plant response rating, Galium [1]: 50; Plant response rating, Ryegrass, Italian [2, 16]: 70; Plant response rating, Ragweed [3]: 20; Plant response rating, Foxtail, Giant [4]: 0; Plant response rating, Barnyardgrass [5, 16]: 70; Plant response rating, Barnyardgrass [6]: 0; Plant response rating, Pigweed [7]: 90; Plant response rating, Kochia (kochia (Bassia scoparia) [8]; [16]): 0; Plant response rating, Blackgrass [9]: 0; Plant response rating, Ragweed [10, 16]: 30; Plant response rating, Foxtail, Giant [11, 16]: 90; Plant response rating, Kochia (kochia (Bassia scoparia) [12]): 0; Plant response rating, Wheat [13]: 0; Plant response rating, Ryegrass, Italian [14]: 60; Plant response rating, Pigweed [15, 16]: 70; Plant response rating, Corn (corn (Zea mays)): 0
